The values that follow come from ChEMBL document CHEMBL5260848, “Recent advancements in the development of bioactive pyrazoline derivatives” (Eur J Med Chem, 2020).

Converted amounts (≈) assume the structure as drawn.

Assay [1] has as its system RAW264.7. The assay is described as follows: Cytotoxicity against mouse RAW264.7 cells relative to control. In kind it is functional.
In assay [2] the test system is RAW264.7. The assay is described as follows: Antiinflammatory activity in LPS-induced mouse RAW264.7 cells assessed as inhibition of LPS induced NO production. In kind it is functional, cell-based.
For assay [3], the species on record is Mus musculus. The assay is described as follows: Antidepressant activity in mouse assessed as […] by forced swimming test. In kind it is functional.
Assay [4] is filed under the species Mus musculus. The experiment in a line: Antianxiety activity in mouse assessed as increase in number of entries in different arms. In kind it is functional.
For assay [5], the species on record is Mus musculus. The experiment in a line: Antidepressant activity in mouse assessed as […] by tail suspension test. Format: functional.
In assay [6] the test system is Mus musculus. The experiment in a line: Anticonvulsant activity in BALB/c mouse assessed as increase in survival rate at 60 mg/kg, ip by PTZ method relative to control. In kind it is functional.
Assay [7] has as its system Escherichia coli. The assay is described as follows: microbe, parasite or virus in culture.
Assay [8] concerns Pseudomonas aeruginosa. The experiment in a line: microbe, parasite or virus in culture.
The subject of assay [9] is Candida albicans. The assay is described as follows: Antifungal activity against Candida albicans. In kind it is functional.
In assay [10] the target is Carbonic anhydrase 1 (Homo sapiens, UniProt P00915). The experiment in a line: Inhibition of human CA1 by UV spectrophotometric analysis.
Carbonic anhydrase 1, sequence (P00915 whole entry): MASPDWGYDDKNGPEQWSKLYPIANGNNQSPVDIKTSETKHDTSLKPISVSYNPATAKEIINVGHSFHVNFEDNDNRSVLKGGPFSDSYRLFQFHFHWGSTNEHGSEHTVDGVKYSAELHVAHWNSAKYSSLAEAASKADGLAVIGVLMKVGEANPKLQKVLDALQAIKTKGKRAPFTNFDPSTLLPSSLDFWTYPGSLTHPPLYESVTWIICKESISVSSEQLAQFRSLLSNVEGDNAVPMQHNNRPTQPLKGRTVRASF
Assay [11] has as its target Carbonic anhydrase 2 (Homo sapiens, UniProt P00918). The experiment in a line: Inhibition of human CA2 by UV spectrophotometric analysis.
Assay [12] has as its target Acetylcholinesterase (Homo sapiens, UniProt P22303).
Assay [13] deals with Pseudomonas aeruginosa. The assay is described as follows: Antibacterial activity against Pseudomonas aeruginosa by agar dilution method. Format: functional.
For assay [14], the system named is Escherichia coli. The assay is described as follows: Potency index, ratio of ampicillin MIC to compound MIC for Escherichia coli by agar dilution method. Format: functional.
Assay [15] relates to Staphylococcus aureus. The assay is described as follows: Potency index, ratio of ampicillin MIC to compound MIC for Staphylococcus aureus by agar dilution method. Format: functional. Background: Agar dilution tests growth on a series of plates holding different concentrations.
Assay [16] deals with Bacillus subtilis. The assay is described as follows: Antibacterial activity against Bacillus subtilis by agar dilution method. In kind it is functional.
The subject of assay [17] is Candida albicans. The assay is described as follows: Antifungal activity against Candida albicans by agar dilution method. Format: functional.
Assay [18] concerns Escherichia coli. The assay is described as follows: Antibacterial activity against Escherichia coli by agar dilution method. Format: functional.
Assay [19] deals with Staphylococcus aureus. The assay is described as follows: Antibacterial activity against Staphylococcus aureus by agar dilution method. In kind it is functional.
Assay [20] can be described thus: Antioxidant activity assessed as DPPH radical scavenging activity. In kind it is functional.
Assay [21] has as its system A549. The experiment in a line: Cytotoxicity against human A549 cells assessed as reduction in cell viability. Format: functional, cell-based.
Assay [22] deals with Mycolicibacterium smegmatis. The assay is described as follows: Antimycobacterial activity against Mycobacterium smegmatis. Format: functional.
For assay [23], the system named is Staphylococcus aureus. The assay is described as follows: microbe, parasite or virus in culture.
For assay [24], the system named is Candida albicans. The assay is described as follows: microbe, parasite or virus in culture.
The species named for assay [25] is Mus musculus. The experiment in a line: Antidepressant activity in Swiss albino mouse assessed as decrease in duration of immobility by tail suspension test relative to control. Details: scale not given: the % may be the effect or the level left. Format: functional.
The species named for assay [26] is Mus musculus. The assay is described as follows: Antidepressant activity in Swiss albino mouse assessed as decrease in immobility time by tail suspension test. In kind it is functional.
In assay [27] the test system is Mus musculus. The experiment in a line: Antidepressant activity in Swiss albino mouse assessed as decrease in duration of immobility at 100 mg/kg, po by forced swimming test relative to control. Format: functional. On the set-up: scale not given: the % may be the effect or the level left.
The species entered for assay [28] is Mus musculus. The assay is described as follows: Antidepressant activity in Swiss albino mouse assessed as decrease in immobility time by forced swimming test. In kind it is functional.
Assay [29] relates to Escherichia coli. The assay is described as follows: microbe, parasite or virus in culture. The source holds these as a separate data set.
Assay [30] deals with Staphylococcus aureus. The assay is described as follows: microbe, parasite or virus in culture. The source holds these as a separate data set.
Assay [31] relates to Aspergillus clavatus. The assay is described as follows: Antifungal activity against Aspergillus clavatus. In kind it is functional.
Assay [32] deals with Staphylococcus aureus. The experiment in a line: Antibacterial activity against Staphylococcus aureus assessed as inhibition of microbial growth. Format: functional.
The test system of assay [33] is Aspergillus niger. The assay is described as follows: Antifungal activity against Aspergillus niger. Format: functional.
Assay [34] deals with Streptococcus pyogenes. The experiment in a line: Antibacterial activity against Streptococcus pyogenes assessed as inhibition of microbial growth. Format: functional.
Assay [35] has as its system Mycobacterium tuberculosis. The assay is described as follows: Antimycobacterial activity against Mycobacterium tuberculosis. In kind it is functional.
Assay [36] concerns Huh-7. The experiment in a line: Cytotoxicity against human Huh-7 cells. Format: functional, cell-based.
Assay [37] concerns HepG2. The assay is described as follows: Cytotoxicity against human HepG2 cells. In kind it is functional, cell-based.
The subject of assay [38] is MCF7. The experiment in a line: cells. The conditions noted are these: Homo sapiens.
Assay [39] in a line: Cytotoxicity against human HGF cells assessed as reduction in cell viability incubated for 48 hrs by MTT assay. In kind it is functional. A general note: Formazan colour is commonly taken as a measure of viable cells.
Assay [40] has as its system HepG2. The experiment in a line: cells. Conditions: Homo sapiens.
In assay [41] the test system is HSC-2. The assay is described as follows: Cytotoxicity against human HSC-2 cells assessed as reduction in cell viability incubated for 48 hrs by MTT assay. In kind it is functional.
A short description of assay [42]: Cytotoxicity against human HPLF cells assessed as reduction in cell viability incubated for 48 hrs by MTT assay. In kind it is functional.
Assay [43] has as its system HSC-3. The assay is described as follows: Cytotoxicity against human HSC-3 cells assessed as reduction in cell viability incubated for 48 hrs by MTT assay. In kind it is functional.
The nature of assay [44]: Cytotoxicity against human HPC cells assessed as reduction in cell viability incubated for 48 hrs by MTT assay. Format: functional.
In assay [45] the test system is Ca9-22. The assay is described as follows: Cytotoxicity against human Ca9-22 cells assessed as reduction in cell viability incubated for 48 hrs by MTT assay. Format: functional.
Assay [46] has as its system DU-145. The assay is described as follows: Cytotoxicity against human DU-145 cells by SRB assay. In kind it is functional.
Assay [47] concerns the target Tubulin (Homo sapiens) (UniProt P68371+Q9H4B7+P0DPH7+P68366+Q13509+Q71U36+P04350+Q3ZCM7+P07437+P68363+Q9BQE3+Q6PEY2+Q13885+Q9BVA1+Q9BUF5). The experiment in a line: Inhibition of tubulin polymerization (unknown origin) by fluorescence assay relative to control. Format: protein-complex assay. Conditions: concentration not given here.
Assay [48] deals with Rattus norvegicus. The assay is described as follows: Antiinflammatory activity in carrageenan induced rat paw edema model relative to indomethacin. In kind it is functional.
Assay [49] has as its system Plasmodium berghei. The assay is described as follows: Antimalarial activity against Plasmodium berghei infected in mouse assessed as suppression percentage at 48.46 umol/kg administered daily relative to control. In kind it is functional. Conditions: dose 48.46 µmol/kg.

Acetylcholinesterase, sequence (P22303 whole entry): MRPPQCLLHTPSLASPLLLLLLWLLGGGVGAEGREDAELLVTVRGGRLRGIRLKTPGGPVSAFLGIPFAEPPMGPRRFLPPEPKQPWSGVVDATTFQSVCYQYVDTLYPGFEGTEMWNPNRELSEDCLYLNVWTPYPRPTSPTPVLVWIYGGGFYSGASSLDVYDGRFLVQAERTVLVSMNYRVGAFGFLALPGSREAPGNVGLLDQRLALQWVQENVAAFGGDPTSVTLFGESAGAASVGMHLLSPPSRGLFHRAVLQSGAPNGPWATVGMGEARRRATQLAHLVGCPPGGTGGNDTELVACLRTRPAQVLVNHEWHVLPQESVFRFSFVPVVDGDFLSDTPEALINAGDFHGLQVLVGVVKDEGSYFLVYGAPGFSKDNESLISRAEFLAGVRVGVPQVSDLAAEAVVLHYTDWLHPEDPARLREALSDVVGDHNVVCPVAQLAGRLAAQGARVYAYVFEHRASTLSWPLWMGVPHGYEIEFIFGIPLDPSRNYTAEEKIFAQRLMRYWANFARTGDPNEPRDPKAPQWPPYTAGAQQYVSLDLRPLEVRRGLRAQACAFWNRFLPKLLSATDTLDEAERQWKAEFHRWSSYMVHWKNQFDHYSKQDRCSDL

Usually IC50 stands for the concentration that gives 50% inhibition. With `C[C@]12CC[C@H]3[C@@H](CC=C4C[C@@H](O)CC[C@@]43C)[C@@H]1CC[C@@H]2C1=NN(C(N)=S)C(c2ccccc2Cl)C1` (stereo partly specified), the Activity in [1] is above 90%. For the same molecule, in assay [2], the 50% inhibitory concentration (IC50) was 0.86 µM.
With `COc1ccc(C2CC(c3ccc(O)cc3)=NN2)cc1OC` (stereo unspecified), the Time in assay [3] and in assay [5] was 21.17 s throughout. Besides, in assay [4], the Activity amounted to 15.5.
With `O=C(Nc1ccc(Cl)cc1)N1N=C(c2ccc(Br)s2)CC1c1c(Cl)cccc1Cl` (stereo unspecified), in assay [6], the survival at 60 mg/kg is 95%.
For the molecule `O=C(c1ccncc1)N1N=C(c2ccc(F)cc2)CC1c1cc2ccccc2nc1Cl` (stereo unspecified), the MIC in assay [7], in assay [8] and in assay [9] was 12.5 µg/mL (≈ 29 µM) in each case.
A word on the Ki: it is a dissociation constant, usually derived from enzyme kinetics or from competition with a known ligand. As for `COc1ccc(C2CC(c3ccccc3)=NN2c2ccc(S(N)(=O)=O)cc2)cc1OC` (stereo unspecified), the inhibition constant Ki in [10] was found to be 0.0279 µM; in assay [11] it was 0.0274 µM; in [12], 0.0377 µM.
Regarding `COc1ccc2c(c1)cc(C1CC(c3cc(Br)ccc3O)=NN1)c1nnnn12` (stereo unspecified), the MIC in assay [13] worked out at 25 µg/mL (≈ 56.9 µM); in assay [16], 25 µg/mL (≈ 56.9 µM); in assay [17] it was 25 µg/mL (≈ 56.9 µM); in assay [18], 50 µg/mL (≈ 114 µM); in assay [19], 50 µg/mL (≈ 114 µM). Moreover, the Ratio is 2 in [14] and 10 in assay [15]. Also, in assay [20], the IC50 was 21 µg/mL (≈ 47.8 µM).
Take `COc1cc(C2CC(c3ccc(Cl)cc3)=NN2C(N)=S)cc(Br)c1O` (stereo unspecified): the IC50 in assay [21] came to 44.1 µM.
Consider `COc1ccc(-c2nn(-c3ccc(Cl)cc3)cc2C2CC(c3ccc(-c4ccccc4)cc3)=NN2)cc1` (stereo unspecified), for which the MIC in assay [22], in assay [23] and in assay [24] was 15.6 µg/mL (≈ 30.9 µM) throughout.
For the molecule `COc1cc(C2CC(c3ccc(-c4cc(F)cc(F)c4)nc3C)=NN2)cc(OC)c1OC` (stereo unspecified), the Activity is recorded as 64.56% in assay [25] and 66.58% in assay [27]. Besides, the Time is on record as 70.33 s in [26] and 66.67 s in assay [28].
`COC(=O)C1N=NN(CC(=O)N2N=C(c3ccccc3)CC2c2cccs2)C1C(=O)OC` (stereo unspecified): the MIC in [29] and in [30] was 3.9 µg/mL (≈ 8.56 µM) each time.
As to `O=C(c1ccncc1)N1N=C(c2ccc([N+](=O)[O-])cc2)CC1c1cc2ccccc2nc1Cl` (stereo unspecified), the MIC in assay [31] came out at 12.5 µg/mL (≈ 27.3 µM); in [32] it was 12.5 µg/mL; in assay [33], 12.5 µg/mL (≈ 27.3 µM); in [34], 12.5 µg/mL; in [9], 12.5 µg/mL (≈ 27.3 µM).
Turning to `COc1ccc(C2CC(c3ccc(Cl)cc3)=NN2c2ccc(S(N)(=O)=O)cc2)cc1OC` (stereo unspecified), the Ki in [10] was 0.0279 µM; in assay [11] it was 0.0274 µM; in assay [12], 0.0377 µM.
Regarding `Clc1ccc(-n2cc(C3CC(c4ccc(-c5ccccc5)cc4)=NN3)c(-c3cccs3)n2)cc1` (stereo unspecified), the MIC in assay [22] is 7.8 µg/mL (≈ 16.2 µM); in assay [23], 1.56 µg/mL (≈ 3.24 µM); in assay [35], 1.56 µg/mL (≈ 3.24 µM); in assay [24], 1.56 µg/mL (≈ 3.24 µM).
Turning to `N#Cc1c(-c2ccc(F)cc2)nc(N2N=C(c3c4ccccc4cc4ccccc34)CC2c2ccc(F)cc2)[nH]c1=O` (stereo unspecified), the IC50 was 6.13 µg/mL (≈ 11.1 µM) in assay [36] and 5.34 µg/mL (≈ 9.65 µM) in assay [37].
For the molecule `CN(C)CCCN1c2ccccc2CCc2ccccc21` [IMIPRAMINE], the Activity in assay [25] was 61.96%; in assay [4], -9.33; in assay [27] it was 62.12%. Also, the Time in [3] and in assay [5] was 29.33 s throughout.
As a reminder, the CC50 is the concentration that lowers cell viability or growth by half. With `O=c1[nH]cc(F)c(=O)[nH]1` [FLUOROURACIL], the half-maximal inhibitory concentration (IC50) in assay [38] was 30 µg/mL (≈ 231 µM); in assay [40], 33.5 µg/mL (≈ 258 µM). In addition, the cytotoxic concentration (CC50) in assay [39], in assay [41], in assay [42], in [43], in assay [44] and in assay [45] was 13 µM in each case.
Broadly, the GI50 is the concentration at which growth is held to half of that of the control. What is called inhibition is the percentage by which the read-out fell short of the control. `COc1ccc(/C=C/C(=O)c2cc(OC)c(OC)c(OC)c2)cc1OCc1cn(Cc2ccc(F)cc2)nn1` registered a GI50 in assay [46] of 1.3 µM. In assay [47], this molecule showed an inhibition of 51%.
On to `COc1ccc(N2N=C(/C=C/c3ccc(C)o3)CC2c2ccc(C)o2)cc1` (stereo unspecified), for which, in assay [48], the Activity is 104%.
Turning to `Cc1ccc(-c2nn(-c3ccccc3)cc2C2CC(c3cccs3)=NN2)cc1` (stereo unspecified), the Activity in assay [49] was 63.4%.
